Assay results reported in US20090209525A1, “ENABLING METHODS TO IDENTIFY ALLOSTERIC MODULATORS OF RECEPTOR ACTIVITY” (priority 2006, published 2009).
Where a chain is given by its changes, count along the chain named. “And” between values parts separate entries of the source, which are not always exact repeats. Equal values may be shown once. Read-outs that look alike come from different tables or passages of the source.

What was measured:
rat M1 W101A receptor = biological target: T1, rat M1 W101A receptor (Rattus norvegicus, UniProt P08482, W101A); assay: R-SAT functional assay, W101A mutant; format: cell-based; details: for Shift: EC50 W101A divided by EC50 wild-type; for Eff (%): maximum response, normalized; for EC50: read-out: pEC50 (converted); for increase in potency relative to wild-type: R-SAT
T1 construct: expressed in transfected cells
T1 sequence (P08482 1-460 W101A): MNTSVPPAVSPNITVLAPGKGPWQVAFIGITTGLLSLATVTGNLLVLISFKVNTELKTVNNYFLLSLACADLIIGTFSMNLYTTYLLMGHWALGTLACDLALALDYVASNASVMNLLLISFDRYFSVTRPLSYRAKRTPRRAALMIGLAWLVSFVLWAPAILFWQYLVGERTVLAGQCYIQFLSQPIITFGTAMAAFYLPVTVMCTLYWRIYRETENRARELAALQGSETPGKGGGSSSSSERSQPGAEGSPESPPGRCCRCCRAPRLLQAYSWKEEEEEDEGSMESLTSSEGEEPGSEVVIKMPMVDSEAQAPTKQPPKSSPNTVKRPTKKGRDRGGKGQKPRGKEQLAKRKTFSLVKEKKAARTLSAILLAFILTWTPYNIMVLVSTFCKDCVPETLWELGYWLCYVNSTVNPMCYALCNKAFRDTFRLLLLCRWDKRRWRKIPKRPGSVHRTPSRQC
Protocol: (§1) Cells are co-transfected for 18 h with DMEM containing 0.08 micrograms/ml of an expression vector for the expression of the mutant receptor and 0.3 micrograms/ml pSI-Bgal (Promega, Madison Wis.), and 0.5% v/v Polyfect (Qiagen, Valencia Calif.), as recommended by the manufacturer. On day three, the medium is replaced with DMEM containing 1% PSG, 0.5% calf serum, 2% cyto-sf3 (Kemp Biotechnologies, Frederick, Md.), and varying concentrations of the compounds to be tested. Cells are grown in a humidified atmosphere with 5% ambient CO2 for 5 days. The media is removed from the plates, and beta-galactosidase activity is measured by the addition of o-nitrophenyl -d-galactopyranoside in phosphate-buffered saline with 5% Nonidet P-40. […] The following equation is fitted to the data using GraphPad Prism software (San Diego, Calif.):
(§2) NIH-3T3 cells were grown in 96-well tissue culture plates to 70 to 80% confluence in Dulbecco's modified essential media (DMEM) supplemented with 100 units/ml penicillin, 100 micrograms/ml streptomycin, 0.3 mg/ml L-glutamine (1% PSG, GIBCO) and 10% calf serum (Sigma-Aldrich). Cells were transfected for 18 h with DMEM containing 0.08 micrograms/ml receptor DNA and 0.3 micrograms/ml pSI-Bgal (Promega, Madison Wis.), 0.5% v/v Polyfect (Qiagen, Valencia Calif.). Medium was replaced with DMEM containing 1% PSG, 0.5% calf serum, 2% cyto-sf3 (Kemp Biotechnologies, Frederick, Md.), and varying concentrations of ligand. […] Cells were grown in a humidified atmosphere with 5% ambient CO2 for 5 days. Medium was removed from the plates, and beta-galactosidase activity was measured by the addition of o-nitrophenyl -d-galactopyranoside in phosphate-buffered saline with 5% Nonidet P-40.
Receptor Selection and Amplification (R-SAT™) Assays: R-SAT™ functional assays were carried out as follows. NIH-3T3 cells were grown in 96-well tissue culture plates to 70 to 80% confluence in Dulbecco's modified essential media (DMEM) supplemented with 100 units/ml penicillin, 100 micrograms/ml streptomycin, 0.3 mg/ml L-glutamine (1% PSG, GIBCO) and 10% calf serum (Sigma-Aldrich). Cells were transfected for 18 h with DMEM containing 0.08 micrograms/ml receptor DNA and 0.3 micrograms/ml pSI-Bgal (Promega, Madison Wis.), 0.5% v/v Polyfect (Qiagen, Valencia Calif.). The transfected cells were frozen away. Cells were thawed and added to 96 well plates with DMEM containing 1% PSG, 0.5% calf serum, 2% cyto-sf3 (Kemp Biotechnologies, Frederick, Md.), and varying concentrations of ligand.
In an effort to further characterize monoamine modulators, we used a panel of mutant muscarininc M1 receptors to analyze the activity and potency of orthosteric modulators and various allosteric modulators at those receptors.

rat M1 D105A receptor = biological target: T2, rat M1 D105A receptor (Rattus norvegicus, UniProt P08482, D105A); assay: R-SAT functional assay, D105A mutant; format: cell-based; details: Table 3, maximum response
T2 construct: expressed in transfected cells; host or cells: NIH-3T3
T2 sequence (P08482 1-460 D105A): T1 sequence (P08482 1-460 W101A) with A101W, D105A
Protocol: as §1, §2

[1] = Table 4, M1 W101A, maximum response relative to xanomeline
[2] = Table 10, M1 W101A, maximum response relative to AC-42

Row | Shift (rat M1 W101A receptor; Table 3) | Eff (%) (rat M1 W101A receptor; Table 3, W101A) | EC50 (rat M1 W101A receptor; Table 3, W101A) | % Eff (rat M1 W101A receptor; [1]) | EC50 (rat M1 W101A receptor; Table 4, M1 W101A) | % Eff (rat M1 W101A receptor; [2]) | EC50 (rat M1 W101A receptor; Table 10, M1 W101A) | Eff (%) (rat M1 D105A receptor) | Compound | increase in potency relative to wild-type (rat M1 W101A receptor; W101A)
1 | 5 | 88 ± 12% | 200 nM | 72% | 39.8 nM | 93% | 100 nM | no resp. | Clc1ccc2c(c1)N=C(N1CCNCC1)c1ccccc1N2 [NDMC, 8-chloro-11-(1-piperazinyl)-5H-dibenzo [b,e] [1,4] diazepine] | 
2 | 0.03 | 100 ± 8% | 0.398 nM | 98% | 0.2 nM | 140% | 3.16 nM | no resp. | CCCCC1CCN(CCCN2C(=O)COc3cc(F)ccc32)CC1 [AC-260584, 4-[3-(4-Butyl-piperidin-1-yl)-propyl]-7-fluoro-4H-benzo [1,4]oxazin-3-one] | 33 fold and 30 fold

Row | Compound | Shift (rat M1 W101A receptor; Table 3) | Eff (%) (rat M1 W101A receptor; Table 3, W101A) | EC50 (rat M1 W101A receptor; Table 3, W101A) | % Eff (rat M1 W101A receptor; [1]) | EC50 (rat M1 W101A receptor; Table 4, M1 W101A) | % Eff (rat M1 W101A receptor; [2]) | EC50 (rat M1 W101A receptor; Table 10, M1 W101A) | Eff (%) (rat M1 D105A receptor) | increase in potency relative to wild-type (rat M1 W101A receptor; W101A)
3 | CCCCC1CCN(CCCC(=O)c2ccccc2C)CC1 [AC-42, 4-n-butyl-1-[4-(2-methylphenyl)-4-oxo-1-butyl] piperidine hydrogen chloride] | 0.02 | 95 ± 10% | 3.16 nM | 97% | 7.94 nM | 111% | 7.94 nM | no resp. | 50 fold
